Experimental findings from ChEMBL document CHEMBL3045220, “Design, characterization, computational studies, and pharmacological evaluation of substituted-N-[(1E) substituted-phenylmethylidene]benzohydrazide analogs” (Med Chem Res, 2013) are described below.

What is called MIC is the smallest concentration in the dilution series that meets the test's criterion for growth inhibition. Broadly, the IC50 is the concentration at which inhibition is half-maximal.

≈ marks a conversion by molar mass, not a printed value.

For one assay, the system named is Staphylococcus aureus. Put plainly: Antibacterial activity against Staphylococcus aureus by agar well diffusion method. Type of assay: functional. Background: A growth-free zone around the sample is the usual read-out of agar diffusion tests.
A short description of assay [1]: Anti-inflammatory activity assessed as inhibition of albumin denaturation incubated for 15 min at 27 degC followed by incubation at 60 degC for 10 min by UV-Vis spectrophotometric analysis.
Another assay has as its system Candida albicans. Put plainly: Antifungal activity against Candida albicans by agar well diffusion method. Type of assay: functional.
The next assay deals with Pseudomonas aeruginosa. Put plainly: Antibacterial activity against Pseudomonas aeruginosa by agar well diffusion method. Type of assay: functional.
The next assay concerns Escherichia coli. Put plainly: Antibacterial activity against Escherichia coli by agar well diffusion method. Type of assay: functional.
Assay [2] is described as follows: Antioxidant activity assessed as H2O2 scavenging activity after 10 min by UV-Vis spectrophotometric analysis. Type of assay: functional.
Assay [3] can be described thus: Antioxidant activity assessed as Mo(6) reduction activity after 60 min by UV-Vis spectrophotometric analysis. Type of assay: functional.
Assay [4] has as its system Staphylococcus epidermidis. Put plainly: Antibacterial activity against Staphylococcus epidermidis by agar well diffusion method. Type of assay: functional.
The next assay relates to Aspergillus niger. Put plainly: Antifungal activity against Aspergillus niger by agar well diffusion method. Type of assay: functional.

For `O=C(N/N=C/c1c(O)ccc2ccccc12)c1ccc(Cl)cc1`, the “-logMIC” value was determined as 1.477 with Staphylococcus aureus; 1.531 in the assay on Candida albicans; 1.4 with Pseudomonas aeruginosa; 1.924 in the assay on Escherichia coli; 2 in [4]; 2 in the assay with Aspergillus niger. The MIC came to 30 µg/mL (≈ 92.4 µM) in the assay on Staphylococcus aureus (Staphylococcus aureus); 34 µg/mL (≈ 105 µM) in the assay on Candida albicans (Candida albicans); 25 µg/mL (≈ 77 µM) with Pseudomonas aeruginosa (Pseudomonas aeruginosa); 84 µg/mL (≈ 259 µM) with Escherichia coli (Escherichia coli); 100 µg/mL (≈ 308 µM) in assay [4] (Staphylococcus epidermidis); 100 µg/mL (≈ 308 µM) against Aspergillus niger (Aspergillus niger). Also, the IC50 in assay [1] was found to be 80 µg/mL (≈ 246 µM); in assay [2], 69 µg/mL (≈ 212 µM); in assay [3] it was 120 µg/mL (≈ 369 µM).
